Assay results taken from paper PMC9503518, “Antibacterial and Antifungal Properties of a Novel Antimicrobial Peptide GK-19 and Its Application in Skin and Soft Tissue Infections Induced by MRSA or Candida albicans” (Pharmaceutics, 2022).
Where no end group is shown, it is not given here.

Assays:
[1] = system: MRSA; settings: mouse, in vivo, 2 h, 50 μM
Method: (§1) The scalded mice models combined with SSTIs by MRSA or C. albicans were constructed. Fifty normal male Kunming mice (5–6 weeks old) weighing ~25 g were anesthetized by isoflurane using a small animal anesthesia machine (R640, RWD Life Science, China). After skin preparation and disinfection, a custom-made circular iron (diameter: 8 mm) (shown in Figure S4) was applied to both sides of the spine of the mice for 10 s at 300 °C, resulting in four scalded wounds. Mice were injected subcutaneously with 5 mg/kg meloxicam (Aladdin, Shanghai, China) for four days (once per day) after scalding for pain relief. Two days after scalding, the skin tissues of the scalded areas were removed carefully, and about 30 μL of 1 × 10^7 CFU/mL of MRSA or C. albicans was applied evenly onto the surfaces of the wounds. The mice were returned to the original feeding environment after the microbial fluid was completely absorbed (1.5–2 h), with two mice per cage. Corncob granules with SPF level were used as padding.
(§2) Two days after microbe inoculating, the scalded wounds of each mouse were divided into four groups randomly. […] The mice were returned to the original feeding environment after the solutions were completely absorbed. The treatment lasted for 12–16 days. Photographs of the wound areas were taken every two days using an iPhone 11 and the wound areas were measured every two days using Image J software (152-win-java8, Bethesda, MD, USA). The average wound areas on day two were used as the reference (100% unhealed) to normalized wound areas. Skin tissues of the wound areas were removed carefully at different time points (n = 5 for each time point) and weighted in a sterile environment. For MRSA infection, 10 mg of the wound tissues was dispersed into 1000 μL of sterile saline solution and the tissue solution was ground into suspension in a tissuelyser (Tissuelyser LT, Servicebio). Then, the tissue suspension was diluted with sterile saline solution 10 times and plated on MHA with a sample volume of 50 μL. For C. albicans infection, 10 mg of the wound tissues was dispersed into 200 μL of sterile saline solution and the tissue solution was also ground into suspension in the tissuelyser. The tissue suspension was then plated on PDA directly with a sample volume of 20 μL. After culturing overnight, the colonies were counted using Image J software or human eyes. In addition, the skin tissues of the wound area were removed carefully at different time points and dispersed into a 4% paraformaldehyde solution for further use.
(§3) The hematoxylin and eosin staining in this study was carried out by Servicebio (Wuhan, China). Briefly, the obtained skin tissues were soaked in 4% paraformaldehyde solution (Beyotime, China) and fixed for more than 24 h. Then, they were dehydrated and embedded with paraffin, and tissue sections having thicknesses of 4 μm were prepared. After deparaffinization and rehydration, hematoxylin and eosin staining was performed.

[2] = system: C. albicans; settings: mouse, in vivo, 2 h, 50 μM
Method: as §1, §2, §3

[3] = system: Escherichia coli (E. coli, ATCC25922); format: cell-based; settings: 1 × 10^6 CFU/mL, MHB, 12 h, peptide 0-20 μM, absorbance at 600 nm, n = 5
Excerpt: (§4) Pseudomonas aeruginosa (P. aeruginosa, ATCC27853), Methicillin-Resistant Staphylococcus aureus (MRSA, 2104270609, clinically isolated strain), Escherichia coli (E. coli, ATCC25922), Klebsiella pneumoniae (K. pneumoniae, ATCC700603), Enterococcus faecalis (E. faecalis, ATCC29212), Candida krusei (C. krusei, ATCC6258), Candida albicans (C. albicans, ATCC90028), and Candida glabrata (C. glabrata, ATCCMYA-2950) were obtained from the First Affiliated Hospital of Xi’an Jiaotong University. Bacterial strains were cultured in MHA or MHB. Fungal strains were cultured in PDA or PDB.
(§5) Strains were incubated in MHB or PDB. After growing for 12–16 h at 37 °C, 200 rpm, 100 μL of 1 × 10^6 CFU/mL of the strains was seeded into 96-well plates and incubated with fresh culture medium containing various antimicrobial peptides (peptide concentration: 0, 0.5, 1.0, 2.0, 3.0, 5.0, 10, 15 or 20 μM) for 12 h. Each concentration was repeated five times. Absorbance at 600 nm was measured using the Multilabel Reader Varioskan Flash (Thermo Fisher). […] (1)

[4] = system: Klebsiella pneumoniae (K. pneumoniae, ATCC700603); format: cell-based; settings: 1 × 10^6 CFU/mL, MHB, 12 h, peptide 0-20 μM, absorbance at 600 nm, n = 5
Excerpt: as §4, §5

[5] = system: Candida krusei (C. krusei, ATCC6258); format: cell-based; settings: 1 × 10^6 CFU/mL, PDB, 12 h, peptide 0-20 μM, absorbance at 600 nm, n = 5
Excerpt: as §4, §5

[6] = system: Enterococcus faecalis (E. faecalis, ATCC29212); format: cell-based; settings: 1 × 10^6 CFU/mL, MHB, 12 h, peptide 0-20 μM, absorbance at 600 nm, n = 5
Excerpt: as §4, §5

[7] = system: Methicillin-Resistant Staphylococcus aureus (MRSA, 2104270609, clinically isolated strain); format: cell-based; settings: 1 × 10^6 CFU/mL, MHB, 12 h, peptide 0-20 μM, absorbance at 600 nm, n = 5
Excerpt: as §4, §5

[8] = system: Candida albicans (C. albicans, ATCC90028); format: cell-based; settings: 1 × 10^6 CFU/mL, PDB, 12 h, peptide 0-20 μM, absorbance at 600 nm, n = 5
Excerpt: as §4, §5

[9] = system: Pseudomonas aeruginosa (P. aeruginosa, ATCC27853); format: cell-based; settings: 1 × 10^6 CFU/mL, MHB, 12 h, peptide 0-20 μM, absorbance at 600 nm, n = 5
Excerpt: as §4, §5

[10] = system: Candida glabrata (C. glabrata, ATCCMYA-2950); format: cell-based; settings: 1 × 10^6 CFU/mL, PDB, 12 h, peptide 0-20 μM, absorbance at 600 nm, n = 5
Excerpt: as §4, §5

[11] = system: rat erythrocytes; settings: rat RBC suspension in PBS, up to 100 μM, 37 °C, 1 h, OD 576 nm, 1% Triton X-100 = 100%, six replicates
Method: The hemolysis assay was carried out as reported in the literature [22]. Briefly, healthy male rats weighing ~300 g were anesthetized by isoflurane using a small animal anesthesia machine (R640, RWD Life Science, Shenzhen, China). Fresh rat blood samples were drawn from the ventral main vein and collected into an ethylene diamine tetraacetic acid (EDTA) treated anticoagulation tube. The collected blood samples were centrifuged at 4 °C, 350× g for five minutes. Red blood cells (RBCs) were pipetted and washed three times with cold PBS. […] These tubes were incubated at 37 °C, 1000 rpm in a BG200 dry bath incubator (Hangzhou LongGene Scientific Instruments Co., Ltd., Hangzhou, China) for 1 h. Then, the tubes were centrifuged at 350× g for 5 min. Next, 20 μL of the supernatants was mixed with 180 μL of PBS. Afterwards, 100 μL of the mixture was transferred into 96-well plates and hemoglobin release was monitored at 576 nm using a Multilabel Reader Varioskan Flash (Thermo Fisher). The RBC suspension in PBS was used as a negative control. The absorbance of the wells containing 1% Triton X-100 was taken as 100% hemolysis. The percentage of hemolysis was calculated using this formula:Hemolysis (%) = [(OD576 nm of the peptide solution − OD576 nm of the negative control)/(OD576 nm of the positive control − OD576 nm of the negative control)] × 100. (3) […]

Sequence: GFLFKLIPKAIKKLISKFK [GK-19]
- MRSA suppressed (inhibition rate) at day eight compared with saline solution groups [1]: more than 95%
- C. albicans suppressed (inhibition rate) at day eight compared with saline solution groups [2]: more than 97%
- Minimum inhibitory concentration (MIC), E. coli [3]: 3 µM
- Minimum inhibitory concentration (MIC), K. pneumoniae [4]: 5 µM
- Minimum inhibitory concentration (MIC), C. krusei [5]: 5 µM
- Minimum inhibitory concentration (MIC), E. faecalis [6]: 3 µM
- Minimum inhibitory concentration (MIC), MRSA [7]: 5 µM
- Minimum inhibitory concentration (MIC), C. albicans [8]: 10 µM
- Minimum inhibitory concentration (MIC), P. aeruginosa [9]: 5 µM
- Minimum inhibitory concentration (MIC), C. glabrata [10]: 10 µM
- hemolytic activity [11]: negligible hemolytic activity
